Experimental data as given in patent US12540166B2, “BNIP3 peptides for treatment of reperfusion injury” (Bimyo GmbH, priority 2019, dated 2026).

Tests used:
[1] = test system: human ventricular cardiomyocytes derived from human induced pluripotent stem cells (humanCM); experiment: In vitro reoxygenation after hypoxia in humanCM; type: cell-based; conditions: 2 h of reoxygenation after hypoxia; for mitochondrial inner membrane depolarization / loss of mitochondrial inner membrane potential: JC-1
Procedure: Cell culture. Human iPSC-derived ventricular cardiomyocytes (humanCM) were obtained from (axol) and were cultivated according to the manufacture's specification.
To simulate vessel occlusion, cells were incubated in buffer (113 mM NaCl, 4.7 mM KCl, 12 mM HEPES, 1.2 mM MgSO4, 30 mM taurine, 1.3 mM CaCl2), pH 7.4) under 1% O2, 37° C. Reoxygenation was performed in buffer supplemented with 5.5 mM glucose under 21% O2, 37° C.
JC-1 Assay. To analyze mitochondrial inner membrane potential in humanCM cells were stained with 5′,6,6′-tetrachloro-1,1′,3,3′-tetraethylbenzimidazolylcarbocyanin Iodid (JC-1). Cells were incubated with 6 μM JC-1 in media at 37° C. for 30 min. After washing cells with PBS buffer at 37° C. they were fixed with 4% PFA for 15 min at room temperature. DAPI staining was performed and cells were analysed using EVOS FL (life Technologies).

[2] = after reperfusion post vessel occlusion, peptide given 5 min before reperfusion
Procedure: In vivo myocardial infarction model in mice. Wild-type and Bnip3 deficient (Bnip3^−/−) mice were anesthetized by i.p. injection of ketamine (100 mg/kg) and xylazin (10 mg/kg) and intubated. Mechanical ventilation parameters were set to a tidal volume of 2.1 to 2.5 ml and a respiratory rate of 140 breaths per min using a mouse mini-ventilator. Deep anaesthesia was maintained by adding 2 vol % isoflurane to the ventilation gas. The chest was opened through a lateral thoracotomy (1 cm left lateral incision between the 3rd and 4th ribs). A 6-0 prolene suture was placed around the left coronary artery (LCA) and a piece of soft silicon tubing placed over the artery. Coronary occlusion was achieved by tightening and tying the suture. After 30 min of occlusion, the silicon tubing was removed and the suture left in place. For longer reperfusion times the chest were closed using 4-0 prolene. 2, 6 and 9 nmol (in 50 μl 0.9% sodium chloride) BNIP3 were injected into the left ventricular cavity 5 min before vessel occlusion. Peptides with 20 amino acids (2 nmol/50 μl) and peptides with 8 amino acids (8 nmol/50 μl) in NaCl were injected 5 min before reperfusion. Sodium chloride injection (50 μl) served as control treatment.
Peptides. […] For uptake and binding studies, peptides were labelled with a fluorophore.

[3] = test system: transient middle cerebral artery occlusion (tMCAO); experiment: Mouse model of focal cerebral reperfusion (tMCAO), brain infarct size; type: in vivo; conditions: 24 h of reperfusion after 30-min tMCAO, vs vehicle
Procedure: We subjected mice to 24 h of reperfusion after a 30-min transient middle cerebral artery occlusion (tMCAO). BNIP3-8B treatment immediately post tMCAO markedly reduces the infarct size by 52% (FIG. 12).

[4] = test system: myocardial infarction model in swine; experiment: In vivo myocardial infarction model in pigs, infarct size; conditions: 60 min LAD occlusion, 4 h of reperfusion, IV 5 min before reperfusion, vs vehicle
Text: In vivo myocardial infarction model in pigs. Following induction of anesthesia, a small incision was made over the femoral artery and vein; the vessels were isolated. A small opening was made in the artery and a sheath was introduced. In addition, a sheath was placed in the femoral vein or other appropriate vein to allow for emergency drug administration if necessary. A blood sample was taken prior to administration of heparin and was used to establish a baseline Activated Clotting Time (ACT) which was recorded. Subsequently, as directed by the surgeon, heparin (250 to 350 IU/kg) was administered as needed to achieve and maintain an ACT that is two times the level of the baseline ACT. Following the initial bolus of heparin ACT was recorded again and monitored at least every 60 minutes thereafter, until completion of surgery.
An appropriate guide catheter was advanced into the ostium of the left anterior descending artery (LAD) using visual guidance provided by fluoroscopy. Non-ionic contrast was used for all procedures. A balloon catheter was introduced by advancing it through the guide catheter to the left anterior descending (LAD) coronary artery. The balloon was advanced into the coronary arteries through a guide catheter to a suitable place above the 1st diagonal branch of the LAD. […] Incidence supportive drugs and defibrillation were recorded in the study record. […]

[5] = test system: isolated adult cardiomyocytes; conditions: survival after 24 h
Procedure: FIG. 7. A Uptake of fluorescence labelled TAT-BNIP3-8B in different organs after 5 min of reperfusion post vessel occlusion. TAT-BNIP3-8B was given 5 min before starting reperfusion. B Survival of isolated adult cardiomyocytes treated with TAT-BNIP3-8B and TAT-BNIP3-8C control peptide after 24 h.

[6] = test system: BNIP3 and BAX interaction with mitochondria; experiment: Mechanistic read-outs in the area at risk of mouse hearts after vessel occlusion and reperfusion; type: in vivo, mice; conditions: for BNIP3 (and BAX) translocation to / interaction with mitochondria: after 10 min of reperfusion, peptide 5 min before reperfusion
Procedure: (§1) In vivo myocardial infarction model in mice. […] Sodium chloride injection (50 μl) served as control treatment.
Immunoblotting. Tissue and human CM cells were lysed in a RIPS buffer (50 mM Tris-HCl, 150 mM NaCl, 0.5 mM EDTA, 1% NP-40 and protease- and phosphatase inhibitor, pH 7.4). Isolated mitochondria were lysed in a Mito-lyse buffer (200 mM sucrose, 10 mM HEPES, 1 mM EGTA, 1% Triton-X100 and protease- and phosphatase inhibitor, pH 7.4). The lysates were cleared by centrifugation (20.000×g, 15 min, 4° C.). Protein concentrations in supernatant were measured using DC Protein Assay (Bio-Rad). Samples were diluted into 4×LDS sample buffer and 10× Reducing Agent (Invitrogen) and were prepared for SDS-PAGE by heating to 95° C. for 5 min. Equivalent amounts of protein were separated using 4-12% Bis-Tris Gels (Invitrogen), transferred on to nitrocellulose and immunoblotted with primary antibodies. The used secondary antibodies were horseradish peroxidise conjugated goat anti-mouse or anti-rabbit IgG (Invitrogen). Immunoblotting was detected by ECL (Thermo Scientific) and imaged on an Imager 600 (Amersham).
Immunoprecipitation. Immunoprecipitation were performed using protein G-coupled Dynabeads (Invitrogen). 500 μg lysed proteins were incubated with 2 μg antibody over night at 4° C. with shaking in PBS buffer containing 1 mM DTT, 0.005% Brij35 and protease-phosphatase inhibitors. Next day 20 μl Dynabeads were added and the solution was incubated again for 1 h. The precipitated immune complex was washed 2 times and then resuspended in eluation buffer containing LDS-Sample Buffer (1:4) und Reducing Agent (1:10) (Invitrogen) in PBS and heated for 5 min at 95° C. After removal of the Dynabeads the Eluate were analysed via immunoblotting.
Caspase-3 activity was measured using the Caspase 3 Assay Kit from Abcam (#ab39401). Murine hearts were harvested after 30 min ischemia and 4 h reperfusion, area at risk was isolated, lysed in containing buffer and the assay was performed according to manufacturer's instructions.
(§2) Swelling Assay. Mitochondrial swelling was measured by light scattering at 540 nm in a microplate absorbance reader FLUOstar Omega (BMG Labtech) at RT. The final assay volume was 200 μl, containing mitochondria at 0.5 mg/ml in buffer containing 250 mM sucrose, 10 mM HEPES, […], pH 7.4.

BNIP3 = BNIP3 (Mus musculus, UniProt O55003); experiment: BNIP3/TAT-BNIP3-8B overlay assay and docking simulation; type: binding; conditions: data not shown
Procedure: Docking Simulation. Experiments were performed using Autodock Vina^52 and HADDOCK^53. The structure of BAX (pdb-ID: 4S0O) was taken from the Protein Data Bank, whereas the structure of BNIP3 and peptide BNIP3-8B were modelled using Modeller9.15^47. The template structures correspond to PDB codes 2k7w and 2ka1. The created model was energy minimized using NAMD2.9^54 and the CHARMM36 force field.

[7] = test system: myocardial infarction model in mice; experiment: In vivo myocardial infarction (ischemia/reperfusion) model in mice, infarct size; conditions: 24 h reperfusion; for effect on infarct size (in words): given 5 min before reperfusion
Procedure: as §1
Infarct size measurement. For analysis of infarct size, mice were euthanized after 24 hours of reperfusion; hearts were excised and perfused with PBS over 5 min. After perfusion, the LCA was re-ligated in the same location as explicated before. Evans blue dye (1 ml of a 1% solution) was injected into the aorta and coronary arteries for delineation of the ischemic AAR from the non-ischemic zone. The tissue was wrapped in a clear food wrap and stored for one hour in a −20° C. freezer. The heart was then serially sectioned perpendicularly to the long axis in 1 mm slices, and each slice was weighed. The sections were incubated in 1% TTC for 5 min at 37° C. for demarcation of the viable and non-viable myocardium within the risk zone. Infarction, AAR, and non-ischemic left ventricle were assessed with computer-assisted planimetry by an observer blinded to sample identity. The size of the myocardial infarction was expressed as a percentage of the AAR.

HL-1 cells = experiment: Doxorubicin-induced mitochondrial swelling in HL-1 cells (OD540); type: cell-based; conditions: 5 μM Doxorubicin given simultaneously, 30 min
Procedure: HL-1 cells were cultured in Claycomb medium as per manufacturer's protocol. The cells were treated with 5 μM Doxorubicin and 2 nmol TAT-BNIP3-8B for 30 min.
as §2

[8] = 37° C.
Procedure: FIG. 8. TAT-BNIP3-8B pharmacokinetics. Fluorescence labelled BNIP3-8B was incubated in human serum (A), plasma (B), and whole blood (C) at 37° C. for indicated time durations and monitored by Western blot. Proteinase K treatment served as control.

I/R injury = conditions: in vivo; cited from earlier work
[9] = test system: infarct size in STEMI patients; conditions: cited from earlier work; for infarct size / effect in patients: clinical trials, administered prior to PPCI
[10] = test system: cancer therapy cardiotoxicity; conditions: in vivo; cited from earlier work

Molecule: TAT-BNIP3-8B: TAT PTD covalently attached to WVELHFFN (BNIP3 amino acids 13-20 with Ser-19 to Phe-19 substitution, SEQ ID NO: 8)
- apoptotic and necrotic cell death [1]: markedly inhibits necrotic and apoptotic cell death
- mitochondrial inner membrane depolarization / loss of mitochondrial inner membrane potential [1]: markedly inhibits
- uptake / tissue distribution [2]: taken up by the heart, spleen and liver and is present in the plasma
- reduction of cerebral infarct size [3]: 52%
- reduction of myocardial infarct size [4]: 56%
- toxicity in cardiomyocytes [5]: no signs of overt toxicity
- interaction with endogenous BNIP3 / BAX (co-immunoprecipitation) ([6]; 5 min of reperfusion, fluorescence-labelled peptide): endogenous BNIP3 and BAX mono, homo- and heterodimers co-immunoprecipitated
- down-stream cell death machinery (mitochondrial swelling, BAX activation, cytochrome c release, caspase-3 activity) ([6]; 10 min to 4 h of reperfusion): inhibition of the down-stream cell death machinery
- BNIP3 (and BAX) translocation to / interaction with mitochondria [6]: prevents BNIP3 and BAX translocation to the mitochondria
- BNIP3/BAX oligomerization ([6]; cytosol of area at risk, 10 minutes reperfusion, blue native-PAGE): strongly inhibited
- binding to BNIP3 (BNIP3): binds to BNIP3
- reduction of infarct size ([7]; wild-type mice, peptide into left ventricle 5 min before reperfusion, vs vehicle): up to 40%
- mitochondrial swelling (OD540) (HL-1 cells): prevents mitochondrial swelling
- half-life in human serum, plasma and whole blood [8]: enables its in vivo inhibitory capacity

Molecule: CC(C)CCC[C@@H](C)[C@H]1CC[C@H]2[C@@H]3CC/C(=N\O)[C@](C)(CCCO)[C@H]3CC[C@]12C [TRO40303]
- infarct size in animal / pre-clinical studies (I/R injury): reduce infarct size
- infarct size / effect in patients [9]: failed to reduce infarct size
- adverse events in patients ([9]; compared with the placebo arm): more adverse events

Molecule: TAT-BNIP3-20C: control peptide: TAT PTD attached to amino acids 42-61 of BNIP3 (LDAQHESGRSSSKSSHCDSP)
- apoptotic and necrotic cell death [1]: not effective
- translocation of human BNIP3 to mitochondria [1]: not effective
- mitochondrial inner membrane depolarization / loss of mitochondrial inner membrane potential [1]: not effective
- BNIP3 (and BAX) translocation to / interaction with mitochondria [6]: does not
- effect on infarct size (in words) ([7]; wild-type mice): not effective

Molecule: TAT-BNIP3-8C: control peptide: BNIP3-8B with Phe-18 to Ala-18 and His-17 to Ala-17 substitutions (WVELAASN)
- apoptotic and necrotic cell death [1]: not effective
- mitochondrial inner membrane depolarization / loss of mitochondrial inner membrane potential [1]: not effective
- BNIP3 (and BAX) translocation to / interaction with mitochondria [6]: does not
- effect on infarct size (in words) ([7]; wild-type mice): does not appreciably affect the infarct size

Molecule: COc1ccccc1OCCNCC(O)COc1cccc2[nH]c3ccccc3c12 (stereo not shown) [carvedilol]
- prevention of cardiotoxicity / cardiomyopathy in cancer patients [10]: failed to show a benefit

Molecule: elamipretide
- infarct size in animal / pre-clinical studies (I/R injury): reduce infarct size
- infarct size / effect in patients [9]: failed to reduce infarct size

B1: BNIP3: BNIP3 protein restituted to BNIP3 deficient mice (TAT-BNIP3 doses, FIG. 1C) (protein)
chain: MSQSGEENLQGSWVELHFSNGNGSSVPASVSIYNGDMEKILLDAQHESGRSSSKSSHCDSPPRSQTPQDTNRAEIDSHSFGEKNSTLSEEDYIERRREVESILKKNSDWIWDWSSRPENIPPKEFLFKHPKRTATLSMRNTSVMKKGGIFSADFLKVFLPSLLLSHLLAIGLGIYIGRRLTTSTSTF
- mitochondrial BAX translocation after addition of BNIP3 ([6]; BNIP3 deficient mouse hearts, early phase of reperfusion): restored the BAX translocation
- infarct size after restitution of BNIP3 ([7]; BNIP3 deficient (Bnip3−/−) mice): infarct sizes comparable to wild-type mice in a dose-dependent manner
